Experimental data: ChEMBL document CHEMBL4043245, “Synthesis, characterization, and cellular localization of a fluorescent probe of the antimalarial 8-aminoquinoline primaquine” (Bioorg Med Chem Lett, 2017); call rule not given here

What was measured:
[1] = test system: Erythrocyte; assay: Drug uptake in human erythrocytes after 30 to 45 mins by mitotracker red dye based flow cytometric method; type: ADME, cell-based
[2] = test system: HepG2; assay: Cytotoxicity against human HepG2 cells after 24 hrs by MTS assay; type: cell-based; conditions: HepG2, 24 h
[3] = test system: Plasmodium berghei; assay: Antiplasmodial activity against liver stage chloroquine-susceptible Plasmodium berghei 1052 C11 infected in HepG2 cells after 44 hrs by TopCount microplate luminescence assay; type: functional, cell-based; conditions: 1052 C11, HepG2, 44 h
[4] = test system: Plasmodium falciparum; assay: Antimalarial activity against asexual blood stage of chloroquine-susceptible Plasmodium falciparum D6 infected in human erythrocytes by [3H]-Hypoxanthine uptake assay; type: functional, cell-based
[5] = test system: Plasmodium falciparum; assay: Antimalarial activity against asexual blood stage of chloroquine-susceptible Plasmodium falciparum 3D7 infected in human erythrocytes by [3H]-Hypoxanthine uptake assay; type: functional, cell-based
[6] = test system: Plasmodium falciparum; assay: Antimalarial activity against asexual blood stage of chloroquine-resistant Plasmodium falciparum W2 infected in human erythrocytes by [3H]-Hypoxanthine uptake assay; type: functional, cell-based
[7] = Drug uptake in food vacuole of asexual blood stage of Plasmodium falciparum D10-ACPLEADER-GFP ring forms infected in human erythrocytes at 150 uM after 30 to 45 mins by mitotracker Red dye based fluorescence microscopic analysis; type: ADME, cell-based
[8] = Drug uptake in apicoplast of asexual blood stage of Plasmodium falciparum D10-ACPLEADER-GFP trophozoite forms infected in human erythrocytes at 150 uM after 30 to 45 mins by mitotracker Red dye based fluorescence microscopic analysis; type: ADME, cell-based
[9] = Drug uptake in relict plastid of asexual blood stage of Plasmodium falciparum D10-ACPLEADER-GFP ring forms infected in human erythrocytes at 150 uM after 30 to 45 mins by mitotracker Red dye based fluorescence microscopic analysis; type: ADME, cell-based
[10] = Drug uptake in cytoplasm of asexual blood stage of Plasmodium falciparum D10-ACPLEADER-GFP schizont forms infected in human erythrocytes at 150 uM after 30 to 45 mins by mitotracker Red dye based fluorescence microscopic analysis; type: ADME, cell-based
[11] = Drug uptake in relict plastid of asexual blood stage of Plasmodium falciparum D10-ACPLEADER-GFP trophozoite forms infected in human erythrocytes at 150 uM after 30 to 45 mins by mitotracker Red dye based fluorescence microscopic analysis; type: ADME, cell-based
[12] = Drug uptake in food vacuole of Plasmodium falciparum D10-ACPLEADER-GFP gametocyte stage 4 infected in human erythrocytes at 150 uM after 30 to 45 mins by mitotracker Red dye based fluorescence microscopic analysis; type: ADME, cell-based
[13] = Drug uptake in cytoplasm of Plasmodium falciparum D10-ACPLEADER-GFP gametocyte stage 5 infected in human erythrocytes at 150 uM after 30 to 45 mins by mitotracker Red dye based fluorescence microscopic analysis; type: ADME, cell-based
[14] = Drug uptake in apicoplast of asexual blood stage of Plasmodium falciparum D10-ACPLEADER-GFP ring forms infected in human erythrocytes at 150 uM after 30 to 45 mins by mitotracker Red dye based fluorescence microscopic analysis; type: ADME, cell-based
[15] = Drug uptake in nucleus of asexual blood stage of Plasmodium falciparum D10-ACPLEADER-GFP ring forms infected in human erythrocytes at 150 uM after 30 to 45 mins by mitotracker Red dye based fluorescence microscopic analysis; type: ADME, cell-based
[16] = Drug uptake in relict plastid of asexual blood stage of Plasmodium falciparum D10-ACPLEADER-GFP schizont forms infected in human erythrocytes at 150 uM after 30 to 45 mins by mitotracker Red dye based fluorescence microscopic analysis; type: ADME, cell-based
[17] = Drug uptake in nucleus of asexual blood stage of Plasmodium falciparum D10-ACPLEADER-GFP trophozoite forms infected in human erythrocytes at 150 uM after 30 to 45 mins by mitotracker Red dye based fluorescence microscopic analysis; type: ADME, cell-based
[18] = Drug uptake in cytoplasm of asexual blood stage of Plasmodium falciparum D10-ACPLEADER-GFP trophozoite forms infected in human erythrocytes at 150 uM after 30 to 45 mins by mitotracker Red dye based fluorescence microscopic analysis; type: ADME, cell-based
[19] = Drug uptake in nucleus of asexual blood stage of Plasmodium falciparum D10-ACPLEADER-GFP schizont forms infected in human erythrocytes at 150 uM after 30 to 45 mins by mitotracker Red dye based fluorescence microscopic analysis; type: ADME, cell-based
[20] = Drug uptake in food vacuole of Plasmodium falciparum D10-ACPLEADER-GFP gametocyte stage 5 infected in human erythrocytes at 150 uM after 30 to 45 mins by mitotracker Red dye based fluorescence microscopic analysis; type: ADME, cell-based
[21] = Drug uptake in cytoplasm of asexual blood stage of Plasmodium falciparum D10-ACPLEADER-GFP trophozoite forms infected in human erythrocytes at 150 uM after 30 to 45 mins in presence of primaquine by mitotracker Red dye based fluorescence microscopic analysis; type: ADME, cell-based
[22] = Drug uptake in cytoplasm of asexual blood stage of Plasmodium falciparum D10-ACPLEADER-GFP ring forms infected in human erythrocytes at 150 uM after 30 to 45 mins by mitotracker Red dye based fluorescence microscopic analysis; type: ADME, cell-based
[23] = Drug uptake in mitochondria of asexual blood stage of Plasmodium falciparum D10-ACPLEADER-GFP trophozoite forms infected in human erythrocytes at 150 uM after 30 to 45 mins by mitotracker Red dye based fluorescence microscopic analysis; type: ADME, cell-based
[24] = Drug uptake in food vacuole of asexual blood stage of Plasmodium falciparum D10-ACPLEADER-GFP schizont forms infected in human erythrocytes at 150 uM after 30 to 45 mins by mitotracker Red dye based fluorescence microscopic analysis; type: ADME, cell-based
[25] = Drug uptake in mitochondria of asexual blood stage of Plasmodium falciparum D10-ACPLEADER-GFP ring forms infected in human erythrocytes at 150 uM after 30 to 45 mins by mitotracker Red dye based fluorescence microscopic analysis; type: ADME, cell-based
[26] = Drug uptake in human HepG2 cells infected with liver stage chloroquine-susceptible Plasmodium berghei 1052 C11 by mitotracker red dye based fluorescence microscopic analysis; type: ADME, cell-based
[27] = Drug uptake in mitochondria of Plasmodium falciparum D10-ACPLEADER-GFP gametocyte stage 5 infected in human erythrocytes at 150 uM after 30 to 45 mins by mitotracker Red dye based fluorescence microscopic analysis; type: ADME, cell-based
[28] = Drug uptake in cytoplasm of Plasmodium falciparum D10-ACPLEADER-GFP gametocyte stage 4 infected in human erythrocytes at 150 uM after 30 to 45 mins by mitotracker Red dye based fluorescence microscopic analysis; type: ADME, cell-based
[29] = Drug uptake in mitochondria of Plasmodium falciparum D10-ACPLEADER-GFP gametocyte stage 4 infected in human erythrocytes at 150 uM after 30 to 45 mins by mitotracker Red dye based fluorescence microscopic analysis; type: ADME, cell-based
[30] = Drug uptake in apicoplast of asexual blood stage of Plasmodium falciparum D10-ACPLEADER-GFP schizont forms infected in human erythrocytes at 150 uM after 30 to 45 mins by mitotracker Red dye based fluorescence microscopic analysis; type: ADME, cell-based
[31] = Drug uptake in food vacuole of asexual blood stage of Plasmodium falciparum D10-ACPLEADER-GFP trophozoite forms infected in human erythrocytes at 150 uM after 30 to 45 mins by mitotracker Red dye based fluorescence microscopic analysis; type: ADME, cell-based
[32] = Drug uptake in mitochondria of asexual blood stage of Plasmodium falciparum D10-ACPLEADER-GFP schizont forms infected in human erythrocytes at 150 uM after 30 to 45 mins by mitotracker Red dye based fluorescence microscopic analysis; type: ADME, cell-based

**Q.** With `O=c1ccc2ccccc2o1` [COUMARIN] as the compound, how does the Drug uptake [1] read?
**A.** Not Active

**Q.** Which IC50 [2] does the source give for `COc1cc(NC(C)CCCN)c2ncccc2c1` (stereo not drawn) [PRIMAQUINE] here?
**A.** 101 µM

**Q.** And the IC50 [3]?
**A.** 17.2 µM

**Q.** And the IC50 [4]?
**A.** 5.16 µM

**Q.** And the IC50 [5]?
**A.** 5.77 µM

**Q.** What about the IC50 [6] of the same compound?
**A.** 2.35 µM

**Q.** Which results are given for `COc1cc(NC(C)CCCNC(=O)CCCc2cc(=O)oc3cc(O)ccc23)c2ncccc2c1` (stereo not drawn)?
**A.** Drug uptake [7]: Not Active; Drug uptake [8]: Not Active; Drug uptake [9]: Not Active; Drug uptake [10]: Active; Drug uptake [11]: Not Active; Drug uptake [12]: Not Active; Drug uptake [13]: Active; Drug uptake [14]: Not Active; Drug uptake [15]: Not Active; Drug uptake [16]: Not Active; Drug uptake [17]: Not Active; Drug uptake [18]: Active; IC50 [2]: 44.5 µM; IC50 [3]: 20.7 µM; Drug uptake [19]: Not Active; Drug uptake [20]: Not Active; IC50 [4]: 4.47 µM; Drug uptake [21]: Not Active; Drug uptake [1]: Not Active; Drug uptake [22]: Active; Drug uptake [23]: Not Active; Drug uptake [24]: Not Active; IC50 [5]: 10.5 µM; Drug uptake [25]: Not Active; Drug uptake [26]: Not Active; Drug uptake [27]: Not Active; Drug uptake [28]: Active; Drug uptake [29]: Not Active; Drug uptake [30]: Not Active; IC50 [6]: 3.52 µM; Drug uptake [31]: Not Active; Drug uptake [32]: Not Active
